Publication PMC10307939 (Pharmacology Research & Perspectives, 2023)
“Also recorded” adds a separate entry of the source. Counter-ions that a name gives are not always drawn.

What was measured:
[1] = test system: male and female ICR mice; experiment: Horizontal locomotor activity, 60‐min session; assay type: in vivo, mouse; settings: for Effect on locomotor activity: SC, drug alone; for Emax / ED50: Mus musculus, sc; for Emax: 1 h, read-out: E max (95%CL), % Methadone E max; for ED50: read-out: ED50 (95% CL)
[2] = target: T1, mouse kappa opioid receptor (Mus musculus, UniProt P33534); experiment: biochemical; assay type: biochemical; settings: for Emax: read-out: KOR E max
[3] = target: T1, mouse kappa opioid receptor; experiment: Radioligand competition binding, mKOR‐CHO membranes; settings: for MOR/KOR (fold selectivity for MOR over KOR): K i at KOR divided by K i at MOR
[4] = test system: male and female ICR mice; experiment: Naltrexone antagonism of test‐drug locomotor activation; assay type: in vivo, mouse; settings: 1.0 mg/kg naltrexone SC 10 min before test drug
[5] = target: T2, human delta‐opioid receptor (Homo sapiens, UniProt P41143); experiment: Ligand‐stimulated [35S]GTPγS binding, hDOR‐CHO membranes; assay type: biochemical; settings: for Emax: read-out: DOR E max
[6] = target: T2, human delta‐opioid receptor; experiment: Radioligand competition binding, hDOR‐CHO membranes; settings: for MOR/DOR (fold selectivity for MOR over DOR): K i at DOR divided by K i at MOR
[7] = target: T3, mouse mu‐opioid receptor (Mus musculus, UniProt P42866); experiment: Radioligand competition binding, mMOR‐CHO membranes; settings: for Ki: MOR K i, [3H]naloxone, mMOR‐CHO membranes, mean ± SEM (n = 3–6)
[8] = target: T3, mouse mu‐opioid receptor; experiment: Ligand‐stimulated [35S]GTPγS binding, mMOR‐CHO membranes; assay type: biochemical; settings: for Emax: read-out: MOR E max
[9] = test system: male and female ICR mice; experiment: Test‐drug antagonism of morphine locomotor activation; assay type: in vivo, mouse; settings: test drug SC 10 min before 32 mg/kg SC morphine

| Compound | KOR E max [2] | Ki [3] [nM] | MOR/KOR (fold selectivity for MOR over KOR) [3] [fold] | Emax [1] [%] | ED50 [1] [mg/kg] | Effect of naltrexone pretreatment on locomotor‐activating dose of test drug [4] | EC50 [5] [nM] | Emax [5] [%] | Ki [6] [nM] | MOR/DOR (fold selectivity for MOR over DOR) [6] [fold] | Ki [7] [nM] | EC50 [8] [nM] | Emax [8] [%] | other results |
| --- | --- | --- | --- | --- | --- | --- | --- | --- | --- | --- | --- | --- | --- | --- |
| CCC(=O)C(CC(C)N(C)C)(c1ccccc1)c1ccccc1 (racemic) [Methadone, (±) Methadone HCl, reference compound] | – | – | – | – | – | – | – | – | – | – | – | – | – | Total locomotor counts ([1]; 32 mg/kg SC, 60‐min session): 7500.1 counts; Mean maximum increase in locomotor counts ([1]; 32 mg/kg vs. saline vehicle): 5149.8 counts; Effect on locomotor activity [1]: dose‐dependent increase in locomotor activity |
| C=C[C@@H]1[C@H]2CCC[C@]1(c1cccc(O)c1)CCN2CCc1ccccc1 [DC‐1‐76.1, 3‐((1R,5S,9S)‐2‐phenethyl‐9‐vinyl‐2‐azabicyclo[3.3.1]nonan‐5‐yl)phenol] | No stim | 52.9 ± 1.11 | 27.7 | 34.3 | 0.72 | significantly attenuated | 1160 ± 214 | -0.7 ± 2.12 | 3390 ± 268 | 1773.3 | – | – | – | – |
| C=C[C@H]1[C@H]2CCC[C@]1(c1cccc(O)c1)CCN2CCc1ccccc1 [DC‐1‐76.2, 3‐((1R,5S,9R)‐2‐phenethyl‐9‐vinyl‐2‐azabicyclo[3.3.1]nonan‐5‐yl)phenol] | No stim | 44 ± 2.98 | 88.5 | 87.6 | 0.47 | significantly attenuated | 160 ± 142 | -6.34 ± 0.78 | 347 ± 45.6 | 698.5 | – | – | – | – |
| C/C=C\[C@H]1[C@H]2CCC[C@]1(c1cccc(O)c1)CCN2CCc1ccccc1 [DC‐1‐90.2, 3‐((1R,5S,9R)‐2‐phenethyl‐9‐((Z)‐prop‐1‐en‐1‐yl)‐2‐azabicyclo[3.3.1]nonan‐5‐yl)phenol] | No stim | 34.5 ± 0.77 | 18.8 | – | – | – | 253 ± 133 | -6.97 ± 0.46 | 430 ± 41.7 | 235.0 | – | – | – | – |
| C/C=C\[C@@H]1[C@H]2CCC[C@]1(c1cccc(O)c1)CCN2CCc1ccccc1 [DC‐1‐128.1, 3‐((1R,5S,9S)‐2‐phenethyl‐9‐((Z)‐prop‐1‐en‐1‐yl)‐2‐azabicyclo [3.3.1]nonan‐5‐yl)phenol] | no KOR activation; also recorded: No stim | 63.3 ± 7.43 | 112.6 | 80.1 | 0.19 | significantly attenuated | 503 ± 118 | 31.4 ± 2.23 | 318 ± 47 | 565.2 | – | – | – | Fold difference in [35S]GTPγS potency, MOR versus DOR ([5]; higher potency at MOR than at DOR): more than 60 fold |
| CCC[C@H]1[C@@H]2CCC[C@@]1(c1cccc(O)c1)CCN2CCc1ccccc1 [EG‐1‐203, 3‐((1S,5R,9R)‐2‐phenethyl‐9‐propyl‐2‐azabicyclo[3.3.1]nonan‐5‐yl)phenol] | – | 22.3 ± 4.66 | 29.3 | 13 | 5.42 | – | 37 ± 17.7 | -11.6 ± 3.08 | 66.5 ± 7.7 | 87.4 | 0.761 ± 0.031 | 24.2 ± 13.8 | 4.79 ± 0.6 | EC50 [2]: 125 ± 88.7 nM; Emax [2]: -3.49 ± 0.67%; Effect of test‐drug pretreatment on locomotor‐activating effects of morphine [9]: significantly attenuated |
| OC/C=C/[C@H]1[C@@H]2CCC[C@@]1(c1cccc(O)c1)CCN2CCc1ccccc1 [EG‐1‐230, 3‐((1S,5R,9R)‐9‐((E)‐3‐hydroxyprop‐1‐en‐1‐yl)‐2‐phenethyl‐2‐azabicyclo[3.3.1]nonan‐5‐yl)phenol] | – | 45.9 ± 7.08 | 10.9 | 2.2 | – | – | 517 ± 366 | -10.6 ± 3.58 | 1010 ± 147 | 238.5 | 4.22 ± 0.177 | 24.1 ± 12 | 0.67 ± 0.79 | EC50 [2]: 20.7 ± 5.6 nM; Emax [2]: -3.97 ± 0.65%; Effect on locomotor activity [1]: inactive when administered alone; Effect of test‐drug pretreatment on locomotor‐activating effects of morphine [9]: significantly attenuated |
| OCC[C@H]1[C@@H]2CCC[C@@]1(c1cccc(O)c1)CCN2CCc1ccccc1 [JL‐2‐39, 3‐((1S,5R,9R)‐9‐(2‐hydroxyethyl)‐2‐phenethyl‐2‐azabicyclo[3.3.1]nonan‐5‐yl)phenol] | No stim | 17.1 ± 2.22 | 43.4 | 87.1 | 2.85 | significantly attenuated | – | – | 473 ± 41.2 | 1199.2 | 0.394 ± 0.035 | 7.09 ± 3.7 | 13 ± 1.48 | Fold less potent than DC‐1‐76.1 in vivo (locomotor activity) ([1]; relative to DC‐1‐76.1): ~ 4 fold; Fold higher MOR affinity than DC‐1‐76.1 ([7]; relative to DC‐1‐76.1): ~ 5 fold; Fold more potent than DC‐1‐76.1 in vitro ([35S]GTPɣS binding, MOR CHO cells) ([8]; relative to DC‐1‐76.1): ~ 5 fold |
| CN1c2ccccc2C(NCCCCCCC(=O)O)c2ccc(Cl)cc2S1(=O)=O (centres unmarked) [Tianeptine, reference compound] | No stim | – | – | – | – | significantly attenuated | – | – | 2830 ± 416 | – | 78.2 ± 9.93 | 6440 ± 622 | 110 ± 3.6 | – |
